The source of these data is EP0778025A1, “Use of 8,9-dehydroestrone for the manufacture of a medicament for the treatment of diseases caused by free radicals” (AMERICAN HOME PRODUCTS CORPORATION, priority 1995, dated 1997).

Each structure is given as a SMILES string. Where two headings read alike, the source gives them in different places. Some results are limits rather than exact numbers.

The test system of series [1] is porcine aortic endothelial cells (PAEC). In words: MTT cytotoxicity assay of porcine aortic endothelial cells exposed to Cu++-treated LDL. It is filed as cell-based. Conditions: 25 ug/ml LDL Cu++ treated in presence of compound (2.5µM stated for 8,9-dehydroestrone), 24 hr incubation, 2% viable without compound. Here is the method:
In the second test procedure, porcine aortic endothelial cells (PAEC) were exposed to LDL that had been modified as above, by exposure to Cu++ in the presence and absence of 8,9-dehydroestrone. […] Subsequent to a 24 hr incubation of the cells with the treated LDL, an MTT assay was performed to assess cytotoxicity (Hansen MB, J Immu Methods 119:203-210 (1989)). This test procedure assesses the percent of cells that are viable (live) in a given assay. In the assay, following exposure to 25 ug/ml LDL oxidized in the absence of compound, only 2% of the cells remained viable. In contrast, the percent live cells following exposure to LDL Cu++ treated in the presence of 8,9-dehydroestrone (2.5µM) was 100% or greater.
In general terms: Tetrazolium dyes change colour on reduction, which living cells bring about.

In a further series the test system is J774 macrophages. In words: Binding of Cu++-treated 125I-LDL to J774 macrophages (scavenger lipoprotein receptors). Format: cell-based. The note with it: Mus musculus. The text has this:
In the first test procedure, radiolabeled-LDL (^125I-LDL) (McFarlane AS, In: Munro HN, Allison JB, eds. Mammalian Protein metabolism, Vol. 1. New York: Academic Press 297-341 (1964)) was modified by exposure to Cu++ in the presence and absence of 8,9-dehydroestrone. Next, J774 macrophages, which express scavenger lipoprotein receptors which bind oxidatively modified-LDL, were exposed to the treated ^125I-LDL. […] By comparison, the same concentrations of estrone reduced the binding of LDL that was oxidized by 39% and 0%, respectively. Since binding and metabolism of oxidized LDL by macrophages is though to contribute strongly to the development of foam cells and therefore, atherosclerotic plaque, this effect of reducing LDL oxidation and subsequent binding to scavenger receptors is thought to be of significant benefit.

In series [2] the test system is low density lipoprotein (LDL). In words: Inhibition of Cu++ mediated LDL oxidation (TBARS method).
[3] abbreviates: J774, read-out: reduction of binding of the LDL that was oxidized.

Usually IC50 stands for the concentration that gives 50% inhibition. A low value points to higher potency. For `C[C@]12CCC3=C(CCc4cc(O)ccc43)[C@@H]1CCC2=O` [8,9-dehydroestrone], the percent live cells in series [1] was ≥ 100%. In the series on J774 macrophages (setting [3]), the inhibition at 0.25 µM stood at 56% and the inhibition at 2.5 µM was 72%. For the same compound, half-maximal inhibition in series [2] (Cu++ mediated LDL oxidation, TBARS) (IC50) required 220 nM. Also, the “inhibition of LDL oxidation” value in series [2] (maximal inhibition, stated for the test procedure in general (Cu++ or endothelial cell induced)) is reported as ≤ 100%.

Turning to `C[C@]12CC[C@H]3C(=CCc4cc(O)ccc43)[C@@H]1CCC2=O` [Equilin, reference compound], in series [1], the percent live cells came to 4%.

In the case of `C[C@]12CC[C@@H]3c4ccc(O)cc4CC[C@H]3[C@@H]1CCC2=O` [estrone], in the series on J774 macrophages (0.25 µM compound present during Cu++ oxidation of 125I-LDL, J774 macrophages, read-out: reduction of binding of the LDL that was oxidized), the inhibition at 0.25 µM came to 0%. In the series on J774 macrophages (2.5 µM compound present during Cu++ oxidation of 125I-LDL, J774 macrophages, read-out: reduction of binding of the LDL that was oxidized), the inhibition at 2.5 µM is 39%.
